According to patent USRE48253E1, “Methotrexate adjuvants to reduce toxicity and methods for using the same” (Tosk, Inc., priority 2008, dated 2020):
Read-outs that look alike come from different tables or passages of the source.

What was measured:
[1] = test system: CCRF-CEM cells; assay: Cell Culture Study I: MTX cytotoxicity, alamarBlue; type: cell-based, human; settings: 72 hours
Experimental: In this study, CCRF-CEM cells purchased from ATCC were cultured and then 12 tubes containing approximately 10^6 cells each treated for 72 hours with media (Group1), MTX 0.03 μM (Group2), MTX+Leucovorin 1 μM (Group3), MTX+Leucovorin 10 μM (Group4), MTX+Leucovorin 100 μM (Group5), MTX+TK-112690 1 μM (Group6), MTX+TK-112690 10 μM (Group7) and MTX+TK-112690 100 μM (Group8). […] Viability was measured as percent reduction of alamarBlue absorbance.
The tumor cell line CCR-CEM (human T-cell acute lymphoblastic leukemia) is obtained from American Type Culture Collection (CRL-1593.2) and cultured in accordance with the product information sheet with the following exceptions: 55.3 cm^2 Petri dishes are used instead of 75 cm^2 culture flasks, and 1% penicillin-streptomycin solution (HyClone SV30010) and 1% GlutaMAX™ (Gibco 35050) are added to the culture medium.
TK-112690, the representative 2,2′-anhydropyrimidine test article, is dissolved in 40% DMSO, sterile filtered then diluted with sterile distilled water to obtain initial working solutions of 10, 100 and 1000 μM. In testing, a 100 fold dilution is made in culture media to give final assay concentrations of 0.1, 1.0 and 10.0 μM. MTX (SAFC Biosciences M8407) is dissolved in sterile distilled water and 5 N NaOH then sterile filtered. The final pH of the stock solution is 7.8 and working solutions are made with sterile distilled water for final assay concentrations of 30, 3.0, 0.3, 0.03 and 0.003 μM. Leucovorin (Sigma F-7878) is dissolved in sterile distilled water, sterile filtered and diluted with sterile distilled water for final assay concentrations of 0.1, 1.0 and 10.0 μM.
Aliquots of 100 μL of cell suspension are plated in 96 well microtiter plates (Corning costar 3595) and placed in an atmosphere of 5% CO2 at 37° C. (Fisher Scientific Isotemp 3500 CO2 Incubator). After 24 hours, 100 μL of growth medium [RPMI-1640 w/L-glutamine (Cambrex 12-702Q) fortified with sodium pyruvate (HyClone SH30239.01), fetal bovine serum (SAFC Biosciences 12107C) and HEPES buffer (Gibco 15630)] and 2 μL of test solution or vehicle are added respectively per well and the plates incubated for an additional 72 hour incubation. MTX is evaluated at concentrations of 0.003, 0.03, 0.30 and 3.0 μM alone or in combination with either a 2,2′-anhydropyrimidine test article or Leucovorin at concentrations of 0.1, 1.0, 10.0 μM. At the end of incubation, the efficacy of anti-cell proliferation is determined by optical absorbance at λ=570 and 600 nm [Spectramax 250 (Molecular Devices)] in accordance with the standard alamarBlue™ (Biosource) protocol.
Group 1 is the cell control (media treated). Group 2 corresponds to cells treated with 0.03 μM MTX. Group 3 are cells treated with 1.0 μM Leucovorin. Group 4 are cells treated with 0.1 μM Leucovorin. Group 5 are cells treated with 10 μM TK-112690. Group 6 are cells treated with MTX+10 μM TK-112690. Group 7 are cells treated with MTX+1.0 μM TK-112690. Group 8 MTX+0.1 μM TK-112690.

[2] = biological target: mouse small intestinal UPase enzyme (Mus musculus, UniProt P52624); assay: UPase inhibition in mouse small intestinal tissue homogenate (HPLC of uracil); type: biochemical
Experimental: A range of TK-112690 doses were studied for the their ability to prevent metabolic breakdown of uridine through the in vitro inhibition of mouse and human small intestinal UPase enzyme. UPase activity was determined by HPLC analysis using UV detection of uracil concentration (UPase catabolizes uridine into uracil and ribose-1-phosphate). The UPase enzyme material was prepared from homogenized mouse and human being small intestinal tissue. TK-112690 was dissolved in water (50 mg/ml) and analyzed for UPase inhibition in aqueous solution containing 5 mM uridine, 0.01 M Tris, 0.01 M phosphate, 1 mM EDTA, and 1 mM DTT. Reactions were performed at 37° C. at pH of 7.3.
The aim of this study was to evaluate TK-112690 […] as an inhibitor of uridine phosphorylase (UPase) enzyme activity. The range of TK-112690 doses studied for ability to prevent metabolic breakdown of uridine, through the in vitro inhibition of mouse and human small intestinal UPase enzyme, was 0, 0.1, 0.5, 1, 5, 10, 50, 100, 500, 1000, 5000 and 10000 μM). Detection of UPase activity was determined by HPLC analysis using UV detection of uracil concentration (UPase catabolizes uridine into uracil and ribose-1-phosphate).
The UPase enzyme material was prepared from homogenized mouse and human being small intestinal tissue. TK-112690 was dissolved in water (50 mg/ml) and analyzed for UPase inhibition in aqueous solution containing 5 mM uridine, 0.01 M Tris, 0.01 M phosphate, 1 mM EDTA, and 1 mM DTT. Reactions were performed at 37° C. at pH of 7.3.
TK-11260 inhibition of mouse and human UPase was analyzed by reverse phase HPLC using UV detection. HPLC analysis was performed at ambient temperature with a Water 2695 Alliance system equipped with a C18 ECONOSIL 5 U ALLtech column. 20 μl of UPase reaction samples were auto-injected onto column. Mobile phase consisted of water eluting for first 2.5 ml and acetonitrile gradient to 100% in 12.5 ml (flow rate 0.5 ml/min). The outlet fluent was monitored by UV absorption in the range of 240-320 nm. UPase enzymatic activity was based on the AUC of the uracil peaks.

[3] = test system: Drosophila melanogaster; assay: Fly Study I: protection from MTX-induced lethality; type: in vivo; settings: with MTX 0.4 mg; TK-112690 0.005 to 0.1 mg
Experimental: In this study, Drosophila melanogaster eggs (50 eggs per vial) were treated with either 0.005 mg TK-112690+0.4 mg MTX (Group 1), 0.01 mg TK-112690+0.4 mg MTX (Group 2), 0.04 mg TK-112690+0.4 mg MTX (Group 3), 0.1 mg TK-112690+0.4 mg MTX (Group 4), 0.4 mg MTX alone (Group 5) or saline blank (Group 6). Two vials of eggs for each dose group were evaluated for viability (viable flies plus pupae).
The efficacy of cancer chemotherapy can be improved if agents are available to reduce the adverse events associated with treatment with cytotoxic agents. To this end, Drosophila melanogaster (commonly know as the fruit fly) is an ideal organism to screen chemical compounds for such side-effect-reducing agents. This study is aimed at finding a dose of a 2,2′-anhydropyrimidine test article that protects against MTX-induced lethality in insects.
Increasing amounts of a 2,2′-anhydropyrimidine test article (typically 0.03 to 0.1 mg) are mixed in an aqueous solution with 0.3 (or 0.4) mg MTX. Four milliliters (mL) of a 2,2′-anhydropyrimidine test article+MTX solutions are added to an appropriate amount of instant fly medium. Fruit fly eggs are added to a 2,2′-anhydropyrimidine test article+MTX treated medium and incubated for up to 31 days. After the 31 day incubation, each assay is scored by the number of mature fly and pupae per vial.
The assays are set up in clear sterile polystyrene narrow diameter vials from Applied Scientific (Hampton, N.H.). Vials are stored in trays and incubated in a darkened 25° C. incubator.
Reagents and materials used are: 50 mg/mL MTX in H2O (pH 8), 20 mg/mL of the 2,2′-anhydropyrimidine test article in H2O, water, sterile polystyrene narrow diameter vials from Applied Scientific, Instant Drosophila Food Medium, Oregon-R Drosophila melanogaster, 25° C. incubator, and 15 mL polystyrene conical tubes
Each assay is performed in a separate fly vial. […] Pre-measured amounts of instant drosophila medium are added to each assay to achieve optimal hydration level. […] Assays are scored by the number of dead pupae or adult flies per vial.

[4] = Table 3, murine UPase, test method of Experiment IX, read-out: UPase IC50

Sequence of mouse small intestinal UPase enzyme (P52624 whole entry, looked up): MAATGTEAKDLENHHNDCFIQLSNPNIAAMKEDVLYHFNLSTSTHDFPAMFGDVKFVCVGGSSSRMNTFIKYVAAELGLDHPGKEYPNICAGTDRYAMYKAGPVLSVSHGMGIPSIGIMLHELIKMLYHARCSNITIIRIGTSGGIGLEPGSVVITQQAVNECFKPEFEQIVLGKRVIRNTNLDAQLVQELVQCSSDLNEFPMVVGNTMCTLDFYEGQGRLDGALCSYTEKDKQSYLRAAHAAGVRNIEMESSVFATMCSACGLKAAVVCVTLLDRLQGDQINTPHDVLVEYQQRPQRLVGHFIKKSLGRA

| Structure (SMILES) | IC50 [2, 4] | further results |
| --- | --- | --- |
| Nc1nc2c(c(=O)[nH]1)N(C=O)C(CNc1ccc(C(=O)N[C@@H](CCC(=O)O)C(=O)O)cc1)CN2 (some centres unmarked) [Leucovorin] | – | effect on MTX cytotoxicity (viability, alamarBlue) ([1]; combined with MTX 0.03 μM): statistically different than Group 2; viability, agent alone vs control ([1]; without MTX): not statistically different than control |
| CC(=N)OCc1cn2c(nc1=O)O[C@H]1[C@H](O)[C@@H](CO)O[C@H]12 [TK-000010] | > 100 µM | – |
| Cc1ccc(SCc2cn3c(nc2=O)O[C@H]2C(O)[C@@H](CO)O[C@H]23)cc1 (some centres unmarked) [TK-000016] | – | IC50 ([2]; 5 mM uridine, 37° C., pH 7.3, read-out: IC50, mouse small intestinal (murine) UPase): < 100 µM |
| CCOCc1cn2c(nc1=O)O[C@H]1[C@H](O)[C@@H](CO)O[C@H]12 [TK-000007] | < 100 µM | – |

Now from value to molecule, other results behind:

| IC50 [2, 4] | Structure (SMILES) | further results |
| --- | --- | --- |
| < 100 µM | O=c1nc2n(cc1NCc1ccccc1)[C@@H]1O[C@H](CO)[C@@H](O)[C@@H]1O2 [TK-000006] | – |
| > 100 µM | Cc1cn2c(nc1=O)O[C@H]1C(O)[C@@H](CF)O[C@H]12 (some centres unmarked) [TK-000015] | – |
| < 100 µM | O=c1nc2n(cc1COCc1ccccc1)[C@@H]1O[C@H](CO)[C@@H](O)[C@@H]1O2 [TK-000008] | – |
| > 100 µM | Cc1cn2c(nc1=O)O[C@H]1[C@H](O)[C@@H](CN=[N+]=[N-])O[C@H]12 [TK-000011] | – |
| < 100 µM | COCc1cn2c(nc1=O)O[C@H]1[C@H](O)[C@@H](CO)O[C@H]12 [TK-000009] | protection against MTX-induced lethality in the Fly model [3]: active |
